# Test results: ChEMBL document CHEMBL1139370, “Discovery of 1-[9-(4-chlorophenyl)-8-(2-chlorophenyl)-9H-purin-6-yl]-4-ethylaminopiperidine-4-carboxylic acid amide hydrochloride (CP-945,598), a novel, potent, and selective cannabinoid type 1 receptor antagonist” (J Med Chem, 2009)
# pIC50, pKi: −log10 of the molar value. The source made the active and inactive calls. The rule behind the calls is not given here.
# Key:
# [1] = Thermodynamic solubility in USP simulated gastric fluid at pH 1.2 by reversed phase HPLC; format: physicochemical; conditions: simulated gi fluid
# [2] = Metabolic stability in rat liver microsomes assessed as intrinsic clearance; format: ADME, Microsome
# Cannabinoid receptor 1 [3] = target: T1, Cannabinoid receptor 1 (Homo sapiens, UniProt P21554); assay: Antagonist activity against human CB1 receptor expressed in CHO-K1 cells by [35S]GTPgamma binding assay; format: functional, cell-based
# [4] = Thermodynamic solubility in 0.1 M phosphate buffered saline at pH 6.5 by reversed phase HPLC; format: physicochemical; conditions: buffer
# [5] = Metabolic stability in human liver microsomes assessed as intrinsic clearance; format: ADME, Microsome
# Cannabinoid receptor 1 [6] = target: Cannabinoid receptor 1 (Rattus norvegicus, UniProt P20272); assay: Displacement of [3H]SR141716A from CB1 receptor in rat brain; format: tissue-based
# Cannabinoid receptor 1 [7] = target: T1, Cannabinoid receptor 1; assay: biochemical; format: cell-based, HEK293
# [8] = Lipophilicity, log D of the compound; format: physicochemical; conditions: octanol/water
# Mus musculus [9] = assay: Reversal of CP-55940-induced locomotor activity in ICR mouse at 10 mg/kg, sc pretreated 15 mins before CP-55940 challenge measured 25 mins post challenge; format: functional, organism-based; design: dose 10 mg/kg
# Mus musculus [10] = assay: Reversal of CP-55940-induced catalepsy in ICR mouse at 10 mg/kg, sc pretreated 15 mins before CP-55940 challenge measured 90 mins post challenge; format: functional, organism-based; design: dose 10 mg/kg
# Mus musculus [11] = assay: Reversal of CP-55940-induced analgesia in ICR mouse at 10 mg/kg, sc pretreated 15 mins before CP-55940 challenge measured 45 mins post challenge by hot plate method; format: functional; conditions: route subcutaneous
# Rattus norvegicus = assay: Anorectic activity in Sprague-Dawley rat assessed as reduction in food intake at 10 mg/kg, po measured at 10 mins interval for 2 hrs by fast-induced refeeding assay relative to control; format: functional; design: scale not given: the % may be the effect or the level left
# Mus musculus [12] = assay: Reversal of CP-55940-induced hypothermia in ICR mouse at 10 mg/kg, sc pretreated 15 mins before CP-55940 challenge measured 65 mins post challenge; format: functional; conditions: route subcutaneous
# [13] = Induction of P-gp-mediated efflux in mdr1a/1b knockout mouse model
# [14] = Inhibition of P-gp by cell-based calcein-acetoxymethyl ester assay
# [15] = Inhibition of P-gp assessed as ATP turnover at […] by cell-based ATPase assay
# [16] = target: Voltage-gated inwardly rectifying potassium channel KCNH2 (Homo sapiens, UniProt Q12809); assay: Inhibition of human ERG
# Chain of Voltage-gated inwardly rectifying potassium channel KCNH2 (Q12809 whole entry): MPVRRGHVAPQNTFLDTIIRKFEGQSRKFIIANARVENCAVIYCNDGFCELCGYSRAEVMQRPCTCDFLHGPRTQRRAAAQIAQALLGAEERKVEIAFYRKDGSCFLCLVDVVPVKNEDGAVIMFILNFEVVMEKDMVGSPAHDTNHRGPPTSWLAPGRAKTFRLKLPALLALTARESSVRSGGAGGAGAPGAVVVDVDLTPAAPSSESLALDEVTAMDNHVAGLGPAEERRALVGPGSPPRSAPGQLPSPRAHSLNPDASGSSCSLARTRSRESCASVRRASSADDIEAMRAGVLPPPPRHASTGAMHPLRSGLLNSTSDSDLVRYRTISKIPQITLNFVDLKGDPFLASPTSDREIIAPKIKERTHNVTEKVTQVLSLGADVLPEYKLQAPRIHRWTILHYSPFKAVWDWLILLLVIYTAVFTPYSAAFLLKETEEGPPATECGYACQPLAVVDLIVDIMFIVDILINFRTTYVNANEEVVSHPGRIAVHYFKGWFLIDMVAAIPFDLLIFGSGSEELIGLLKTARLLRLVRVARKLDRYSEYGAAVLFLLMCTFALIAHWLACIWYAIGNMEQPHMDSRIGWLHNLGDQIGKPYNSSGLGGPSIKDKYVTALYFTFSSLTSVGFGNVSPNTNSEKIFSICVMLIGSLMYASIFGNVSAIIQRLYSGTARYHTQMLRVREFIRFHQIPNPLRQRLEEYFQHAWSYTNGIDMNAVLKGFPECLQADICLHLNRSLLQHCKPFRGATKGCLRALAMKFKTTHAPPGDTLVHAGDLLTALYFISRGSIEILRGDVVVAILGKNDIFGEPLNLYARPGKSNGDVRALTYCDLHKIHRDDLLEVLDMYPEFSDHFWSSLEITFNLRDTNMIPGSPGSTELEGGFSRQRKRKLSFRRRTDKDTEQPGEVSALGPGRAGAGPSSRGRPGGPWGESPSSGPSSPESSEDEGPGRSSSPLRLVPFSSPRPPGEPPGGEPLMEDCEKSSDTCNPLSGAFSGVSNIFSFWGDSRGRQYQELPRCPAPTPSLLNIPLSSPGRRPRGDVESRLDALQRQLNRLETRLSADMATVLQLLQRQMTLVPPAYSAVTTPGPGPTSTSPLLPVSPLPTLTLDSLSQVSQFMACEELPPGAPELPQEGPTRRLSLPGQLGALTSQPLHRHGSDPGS
# T1 sequence (P21554 whole entry): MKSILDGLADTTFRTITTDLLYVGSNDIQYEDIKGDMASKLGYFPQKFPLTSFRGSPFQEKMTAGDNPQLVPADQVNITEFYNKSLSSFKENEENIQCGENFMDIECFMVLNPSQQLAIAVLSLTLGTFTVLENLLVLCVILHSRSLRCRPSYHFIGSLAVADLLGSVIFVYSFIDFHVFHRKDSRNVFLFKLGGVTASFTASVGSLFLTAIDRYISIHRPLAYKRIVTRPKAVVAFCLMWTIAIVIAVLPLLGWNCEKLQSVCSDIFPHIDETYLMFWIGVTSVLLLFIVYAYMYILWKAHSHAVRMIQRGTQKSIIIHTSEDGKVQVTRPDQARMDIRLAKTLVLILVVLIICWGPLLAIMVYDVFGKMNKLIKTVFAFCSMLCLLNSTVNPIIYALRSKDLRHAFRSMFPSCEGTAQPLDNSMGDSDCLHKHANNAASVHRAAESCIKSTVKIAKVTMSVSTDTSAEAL
# Chain of Cannabinoid receptor 1 (Rattus norvegicus, UniProt P20272) (P20272 whole entry): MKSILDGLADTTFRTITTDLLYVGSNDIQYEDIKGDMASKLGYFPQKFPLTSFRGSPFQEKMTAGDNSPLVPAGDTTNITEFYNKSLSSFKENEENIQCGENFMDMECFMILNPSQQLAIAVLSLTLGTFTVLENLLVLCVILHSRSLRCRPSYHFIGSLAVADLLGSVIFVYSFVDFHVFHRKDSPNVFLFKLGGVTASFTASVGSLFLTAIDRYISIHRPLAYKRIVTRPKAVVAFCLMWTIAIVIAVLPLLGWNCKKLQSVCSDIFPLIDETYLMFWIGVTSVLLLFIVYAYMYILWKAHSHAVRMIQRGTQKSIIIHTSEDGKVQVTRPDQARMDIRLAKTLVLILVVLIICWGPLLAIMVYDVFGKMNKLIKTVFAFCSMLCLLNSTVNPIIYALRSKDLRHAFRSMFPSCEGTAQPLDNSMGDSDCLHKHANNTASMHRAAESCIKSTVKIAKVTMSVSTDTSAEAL
SMILES,Thermodynamic solubility [1],CLint scaled [2],pKi (Cannabinoid receptor 1 [3]),Thermodynamic solubility [4],CLint scaled [5],pKi (Cannabinoid receptor 1 [6]),pKi (Cannabinoid receptor 1 [7]),logD [8],Activity (Mus musculus [9]),Activity (Mus musculus [10]),Activity (Mus musculus [11]),Activity (Rattus norvegicus),Activity (Mus musculus [12]),Activity [13],pIC50 [14],Activity [15],pIC50 [16]
Clc1ccc(-n2c(-c3ccc(Cl)cc3Cl)nc3c(NC4CCCCC4)ncnc32)cc1,4.1 ugA/ml,1440 L/h/kg,8.82,< 0.1 ugA/ml,1680 L/h/kg,7.92,8.15,6.3,–,–,–,–,–,–,–,–,–
Clc1ccc(-n2c(-c3ccccc3Cl)nc3c(N4CCCCC4)ncnc32)cc1,8.8 ugA/ml,516 L/h/kg,8.96,< 0.1 µgA/ml,186 L/h/kg,8.68,8.64,5.4,–,–,–,–,–,–,–,–,–
CCNC1(C(N)=O)CCN(c2ncnc3c2nc(-c2ccccc2Cl)n3-c2ccc(Cl)cc2)CC1 [OTENABANT],291 ugA/ml,72 L/h/kg,–,1.3 ugA/ml,44.4 L/h/kg,8.55,–,4,Active,Active,85%,54%,73%,Active,4.82,inactive,< 5.52
Clc1ccc(-n2c(-c3ccc(Cl)cc3Cl)nc3c(NN4CCCCC4)ncnc32)cc1,161 ugA/ml,246 L/h/kg,8.77,1.4 ugA/ml,102 L/h/kg,8.44,8.13,5.3,–,–,–,–,–,–,–,–,5.57
Cc1c(C(=O)NN2CCCCC2)nn(-c2ccc(Cl)cc2Cl)c1-c1ccc(Cl)cc1 [RIMONABANT],–,540 L/h/kg,–,–,–,–,–,–,–,–,–,–,–,–,–,–,–
CN1CCN(c2ncnc3c2nc(-c2ccc(Cl)cc2Cl)n3-c2ccc(Cl)cc2)CC1,4930 ugA/ml,354 L/h/kg,8.82,0.7 ugA/ml,44.4 L/h/kg,8.23,8.28,4.8,–,–,74%,25%,4%,–,–,–,6.46
CN1CCN(c2ncnc3c2nc(-c2ccccc2Cl)n3-c2ccc(Cl)cc2)CC1,1290 ugA/ml,90 L/h/kg,–,0.33 ugA/ml,18 L/h/kg,7.62,–,4.1,–,–,–,–,–,–,–,–,6.20
Clc1ccc(-n2c(-c3ccc(Cl)cc3Cl)nc3c(N4CCCCC4)ncnc32)cc1,3.5 ugA/ml,4620 L/h/kg,8.77,< 0.1 ugA/ml,1680 L/h/kg,8.38,8.21,5.9,–,–,72%,6%,29%,–,–,–,< 5.52
